EC50 data for 19 compounds are collected here from patent publication US10689399B2, “Substituted 3,4,5,6,8,10,14,14a-octahydro-2h-2,6-methanopyrido[1′,2′:4,5]pyrazino[2,1-b][1,3]oxazocines and methods for treating viral infections” (Gilead Sciences, Inc., priority 2012, dated 2020).

The structures appear in SMILES notation. Read-outs that look alike come from different tables or passages of the source.

In this assay the test system is HIV-IIIb. In words: Antiviral assay in MT4 cells. The assay is classed as cell-based. To be noted: Human immunodeficiency virus 1, IIIB, MT4, 120 h. As to the method: For the antiviral assay utilizing MT4 cells, 0.4 μL of 189X test concentration of 3-fold serially diluted compound in DMSO was added to 40 μL of cell growth medium (RPMI 1640, 10% FBS, 1% penicilline/Streptomycine, 1% L-Glutamine, 1% HEPES) in each well of 384-well assay plates (10 concentrations) in quidruplicate.
1 mL aliquots of 2×10^6 MT4 cells are pre-infected for 1 and 3 hours respectively at 37° C. with 25 μL (MT4) or of either cell growth medium (mock-infected) or a fresh 1:250 dilution of an HIV-IIIb concentrated ABI stock (0.004 m.o.i. for MT4 cells). Infected and uninfected cells are diluted in cell growth medium and 35 μL of 2000 (for MT4) cells is added to each well of the assay plates.
Assay plates were then incubated in a 37° C. incubator. After 5 days of incubation, 25 μL of 2× concentrated CellTiter-Glo™ Reagent (catalog # G7573, Promega Biosciences, Inc., Madison, Wis.) was added to each well of the assay plate. Cell lysis was carried out by incubating at room temperature for 2-3 minutes, and then chemiluminescence was read using the Envision reader (PerkinElmer).

The mark [1] stands for this setting: MT4 cells infected with HIV-IIIb, 5 days, CellTiter-Glo, read-out: EC50 nM in MT-4.
Setting [2] is: read-out: EC50 nM in MT-4, MT4 cells infected with HIV-IIIb, 5 days, CellTiter-Glo.

By EC50 is commonly meant the midpoint of the concentration-response curve.

On to `O=C(NCc1ccc(F)cc1F)c1cn2c(c(O)c1=O)C(=O)N1[C@@H]3COC[C@@H](C3)O[C@H]1C2` (racemic) [50/51, N-(2,4-difluorobenzyl)-9-hydroxy-8,10-dioxo-2,3,5,6,8,10,14,14a-octahydro-2,6-methanopyrido[1′,2′:4,5]pyrazino[2,1-b][1,6,3]dioxazocine-11-carboxamide], for which the EC50 under setting [1] stood at 1.9 nM. Take `O=C(NCc1ccc(F)cc1F)c1cn2c(c(O)c1=O)C(=O)N1[C@@H]3CC[C@@H](C3)O[C@H]1C2` (racemic) [Compound 1, N-(2,4-difluorobenzyl)-8-hydroxy-7,9-dioxo-2,3,4,5,7,9,13,13a-octahydro-2,5-methanopyrido[1′,2′:4,5]pyrazino[2,1-b][1,3]oxazepine-10-carboxamide]: the EC50 under setting [1] amounted to 2.6 nM. Consider `O=C(NCc1c(F)cc(F)cc1F)c1cn2c(c(O)c1=O)C(=O)N1[C@H]3C[C@H](C3)[C@H]1C2` (single isomer, unassigned) [Compound 96], for which, under setting [1], the EC50 was 2.6 nM. As for `O=C(NCc1c(F)cc(F)cc1F)c1cn2c(c(O)c1=O)C(=O)N1[C@H]3C[C@H](C3)[C@@H]1C2` (single isomer, unassigned) [Compound 97], under setting [1], the EC50 amounted to 2.1 nM. With `O=C(NCc1ccc(F)cc1F)c1cn2c(c(O)c1=O)C(=O)N1C(C2)[C@H]2CC[C@@H]1C2` (stereo in doubt) [Compound 38, (1S,4R,12aR)—N-(2,4-difluorobenzyl)-7-hydroxy-6,8-dioxo-1,2,3,4,6,8,12,12a-octahydro-1,4-methanodipyrido[1,2-a:1′,2′-d]pyrazine-9-carboxamide], under setting [2], the EC50 is 1.7 nM. On the same count and under the same terms, the figure for `O=C(NCc1ccc(F)cc1F)c1cn2c(c(O)c1=O)C(=O)N1C(C2)[C@H]2CC[C@@H]1C2` (stereo in doubt) [Compound 48, (1S,4R,12aS)—N-(2,4-difluorobenzyl)-7-hydroxy-6,8-dioxo-1,2,3,4,6,8,12,12a-octahydro-1,4-methanodipyrido[1,2-a:1′,2′-d]pyrazine-9-carboxamide] is 2.7 nM. Regarding `O=C(NCc1c(F)cc(F)cc1F)c1cn2c(c(O)c1=O)C(=O)N1[C@H]3CC(F)C(C3)[C@@H]1C2` (stereo in doubt) [Compound 56, (1R,2S,4R,12aR)-2-fluoro-7-hydroxy-6,8-dioxo-N-(2,4,6-trifluorobenzyl)-1,2,3,4,6,8,12,12a-octahydro-1,4-methanodipyrido[1,2-a:1′,2′-d]pyrazine-9-carboxamide], the EC50 under setting [1] worked out at 3.1 nM.

Regarding `O=C(NCc1ccc(F)cc1F)c1cn2c(c(O)c1=O)C(=O)N1[C@H]3CC[C@H](C3)O[C@@H]1C2` [Compound 2, (2R,5S,13aR)—N-(2,4-difluorobenzyl)-8-hydroxy-7,9-dioxo-2,3,4,5,7,9,13,13a-octahydro-2,5-methanopyrido[1′,2′:4,5]pyrazino[2,1-b][1,3]oxazepine-10-carboxamide], the half-maximal effective concentration (EC50) under setting [1] was 2.2 nM. For the compound `O=C(NCc1ccc(F)cc1F)c1cn2c(c(O)c1=O)C(=O)N1[C@@H]3CC[C@@H](C3)O[C@H]1C2` [Compound 3, (2S,5R,13aS)—N-(2,4-difluorobenzyl)-8-hydroxy-7,9-dioxo-2,3,4,5,7,9,13,13a-octahydro-2,5-methanopyrido[1′,2′:4,5]pyrazino[2,1-b][1,3]oxazepine-10-carboxamide], the EC50 under setting [1] worked out at 2 nM. Same read-out and setting: the result for `O=C(NCc1ccc(F)cc1F)c1cn2c(c(O)c1=O)C(=O)N1C(C2)[N@@]2CC[C@@H]1C2` (stereo partly drawn) [Compound 4, (1S,4R)—N-(2,4-difluorobenzyl)-7-hydroxy-6,8-dioxo-3,4,6,8,12,12a-hexahydro-2H-1,4-methanopyrido[1′,2′:4,5]pyrazino[1,2-a]pyrimidine-9-carboxamide] reads 14.8 nM; that for `C[C@@H]1CCO[C@H]2Cn3cc(C(=O)NC4(c5ccc(F)cc5F)CC4)c(=O)c(O)c3C(=O)N12` [Compound 5, (4R,12aS)—N-(1-(2,4-difluorophenyl)cyclopropyl)-7-hydroxy-4-methyl-6,8-dioxo-3,4,6,8,12,12a-hexahydro-2H-[1,3]oxazino[3,2-d]pyrido[1,2-a]pyrazine-9-carboxamide], 8.1 nM. For the compound `O=C(NCc1ccc(F)cc1F)c1cn2c(c(O)c1=O)C(=O)N1C(C2)[N@]2CC[C@H]1C2` (stereo partly drawn) [Compound 6, (1R,4S)—N-(2,4-difluorobenzyl)-7-hydroxy-6,8-dioxo-3,4,6,8,12,12a-hexahydro-2H-1,4-methanopyrido[1′,2′:4,5]pyrazino[1,2-a]pyrimidine-9-carboxamide], under setting [1], the EC50 was 5.3 nM. Same read-out and setting: the result for `O=C(NCc1ccc(F)cc1F)c1cn2c(c(O)c1=O)C(=O)N1C(C2)O[C@H]2CCC[C@@H]1C2` (stereo partly drawn) [Compound 7, (2S,6R)—N-(2,4-difluorobenzyl)-9-hydroxy-8,10-dioxo-3,4,5,6,8,10,14,14a-octahydro-2H-2,6-methanopyrido[1′,2′:4,5]pyrazino[2,1-b][1,3]oxazocine-11-carboxamide] reads 3.5 nM. The same measure, in the same setting: the result for `O=C(NCc1ccc(F)cc1F)c1cn2c(c(O)c1=O)C(=O)N1C(C2)O[C@@H]2CCC[C@H]1C2` (stereo partly drawn) [Compound 8, (2R,6S)—N-(2,4-difluorobenzyl)-9-hydroxy-8,10-dioxo-3,4,5,6,8,10,14,14a-octahydro-2H-2,6-methanopyrido[1′,2′:4,5]pyrazino[2,1-b][1,3]oxazocine-11-carboxamide] reads 2.5 nM; that for `C[C@@H](NC(=O)c1cn2c(c(O)c1=O)C(=O)N1[C@@H]3CC[C@@H](C3)O[C@H]1C2)c1ccc(F)cc1` [Compound 9, (2S,5R,13aS)—N—((R)-1-(4-fluorophenyl)ethyl)-8-hydroxy-7,9-dioxo-2,3,4,5,7,9,13,13a-octahydro-2,5-methanopyrido[1′,2′:4,5]pyrazino[2,1-b][1,3]oxazepine-10-carboxamide], 5.1 nM.

`C[C@@H](NC(=O)c1cn2c(c(O)c1=O)C(=O)N1[C@H]3CC[C@H](C3)O[C@@H]1C2)c1ccc(F)cc1` [Compound 10, (2R,5S,13aR)—N—((R)-1-(4-fluorophenyl)ethyl)-8-hydroxy-7,9-dioxo-2,3,4,5,7,9,13,13a-octahydro-2,5-methanopyrido[1%2′: 4,5]pyrazino[2,1-b][1,3]oxazepine-10-carboxamide]: the EC50 under setting [1] came out at 6.1 nM. Still for that read-out and setting: the figure for `C[C@@H](NC(=O)c1cn2c(c(O)c1=O)C(=O)N1[C@@H]3CC[C@@H](C3)O[C@H]1C2)c1ccc(F)cc1F` [Compound 11, (2S,5R,13aS)—N—((R)-1-(2,4-difluorophenyl)ethyl)-8-hydroxy-7,9-dioxo-2,3,4,5,7,9,13,13a-octahydro-2,5-methanopyrido[1′,2′: 4,5]pyrazino[2,1-b][1,3]oxazepine-10-carboxamide] is 4.9 nM; for `C[C@@H](NC(=O)c1cn2c(c(O)c1=O)C(=O)N1[C@H]3CC[C@H](C3)O[C@@H]1C2)c1ccc(F)cc1F` [Compound 12, (2R,5S,13aR)—N—((R)-1-(2,4-difluorophenyl)ethyl)-8-hydroxy-7,9-dioxo-2,3,4,5,7,9,13,13a-octahydro-2,5-methanopyrido[1′,2′:4,5]pyrazino[2,1-b][1,3]oxazepine-10-carboxamide] it is 5.9 nM. Same read-out and setting: the result for `C[C@H](NC(=O)c1cn2c(c(O)c1=O)C(=O)N1[C@@H]3CC[C@@H](C3)O[C@H]1C2)c1ccc(F)cc1F` [Compound 13, (2S,5R,13aS)—N—((S)-1-(2,4-difluorophenyl)ethyl)-8-hydroxy-7,9-dioxo-2,3,4,5,7,9,13,13a-octahydro-2,5-methanopyrido[1%2′: 4,5]pyrazino[2,1-b][1,3]oxazepine-10-carboxamide] reads 46 nM.
